In US7247617B2, “Sixteen-member macrolide antiinfective agents” (Kosan Biosciences Incorporated, priority 2004, dated 2007):

What was measured:
S. epidermidis = experiment: Biological activity against bacterial strains: S. epidermidis; type: cell-based, Staphylococcus epidermidis; details: strain ATCC12228
E. faecalis = experiment: Biological activity against bacterial strains: E. faecalis; type: cell-based, Enterococcus faecalis; details: strain ATCC51575
S. aureus = experiment: Biological activity against bacterial strains: S. aureus; type: cell-based, Staphylococcus aureus; design: unit not given here; details: for Biological Activity, S. aureus ATCC6538p: strain ATCC6538p; for Biological Activity, S. aureus ATCC14154*: strain ATCC14154, macrolide resistant strain; for Biological Activity, S. aureus ATCC29213: strain ATCC29213; for Biological Activity, S. aureus ATCC33591*: strain ATCC33591, macrolide resistant strain; for Biological Activity, S. aureus ATCCBAA-39*: strain ATCCBAA-39, macrolide resistant strain; for Biological Activity, S. aureus ATCCBAA-44*: strain ATCCBAA-44, macrolide resistant strain
Haemophilus Influenzae = experiment: H. influenzae Activity; type: cell-based; details: for decrease in activity compared to OMT: strains ATCC9006 and ATCC49766
S. pneumoniae = experiment: Biological activity against bacterial strains: S. pneumoniae; type: cell-based, Streptococcus pneumoniae; design: Biological Activity, S. pneumoniae ATCC6301 / Biological Activity, S. pneumoniae ATCC700671 / Biological Activity, S. pneumoniae ATCC700676* / Biological Activity, S. pneumoniae ATCC700677* / Biological Activity, S. pneumoniae ATCC700905* / Biological Activity, S. pneumoniae ATCC700906* / Biological Activity, S. pneumoniae ATCC49619: unit not given here; details: for Biological Activity, S. pneumoniae ATCC6301: strain ATCC6301; for Biological Activity, S. pneumoniae ATCC49619: strain ATCC49619; for Biological Activity, S. pneumoniae ATCC700671: strain ATCC700671; for Biological Activity, S. pneumoniae ATCC700676*: strain ATCC700676, macrolide resistant strain; for Biological Activity, S. pneumoniae ATCC700677*: strain ATCC700677, macrolide resistant strain; for Biological Activity, S. pneumoniae ATCC700905*: strain ATCC700905, macrolide resistant strain; for Biological Activity, S. pneumoniae ATCC700906*: strain ATCC700906, macrolide resistant strain

SMILES	Biological Activity, S. epidermidis ATCC12228 (S. epidermidis)	Biological Activity, E. faecalis ATCC51575 (E. faecalis)	Biological Activity, S. aureus ATCC6538p (S. aureus)	Biological Activity, S. aureus ATCC14154* (S. aureus)	Biological Activity, S. aureus ATCC29213 (S. aureus)	Biological Activity, S. aureus ATCC33591* (S. aureus)	Biological Activity, S. aureus ATCCBAA-39* (S. aureus)	Biological Activity, S. aureus ATCCBAA-44* (S. aureus)	H. influenzae Activity, strain ATCC9006 (Haemophilus Influenzae)	H. influenzae Activity, strain ATCC49766 (Haemophilus Influenzae)	decrease in activity compared to OMT (Haemophilus Influenzae)	Biological Activity, S. pneumoniae ATCC6301 (S. pneumoniae)	Biological Activity, S. pneumoniae ATCC49619 (S. pneumoniae)	Biological Activity, S. pneumoniae ATCC700671 (S. pneumoniae)	Biological Activity, S. pneumoniae ATCC700676* (S. pneumoniae)	Biological Activity, S. pneumoniae ATCC700677* (S. pneumoniae)	Biological Activity, S. pneumoniae ATCC700905* (S. pneumoniae)	Biological Activity, S. pneumoniae ATCC700906* (S. pneumoniae)
CCC1OC(=O)CC(O)C(C)C(OC2OC(C)C(O)C(N(C)C)C2O)C(CC=O)CC(C)C(=NOCCCOc2ccc3ncccc3c2)C=CC(C)=CC1CO (stereo not drawn) [Compound A]	0.098	>12.5	0.025	0.20	0.098	>12.5	>12.5	>12.5	6.25	6.25	~4 fold	0.025	0.01	0.025	0.025	0.20	0.025	>12.5
CCC1OC(=O)CC(O)C(C)C(OC2OC(C)C(O)C(N(C)C)C2O)C(CC=O)CC(C)C(=NOCCCOc2ccc3ncccc3c2)C=CC(C)=CC1COC(=O)NCc1ccccc1 (stereo not drawn) [Compound DD]	0.78	>12.5	0.78	1.56	0.78	12.5	>12.5	>12.5	12.5	12.5		0.049	0.049	0.049	0.049	0.2	>12.5	0.049
CCC1OC(=O)CC(O)C(C)C(OC2OC(C)C(O)C(N(C)C)C2O)C(CC=O)CC(C)C(=NOCCCCOc2ccc3ncccc3c2)C=CC(C)=CC1COC(=O)NCc1ccccc1 (stereo not drawn) [Compound EE]	6.25	>12.5	3.12	6.25	6.25	>12.5	>12.5	>12.5	12.5	>12.5		0.049	0.098	0.2	0.049	0.39	0.049	>12.5
CCC1OC(=O)CC(O)C(C)C(OC2OC(C)C(O)C(N(C)C)C2O)C(CC=O)CC(C)C(=NOCC=Cc2cnc3ccccc3c2)C=CC(C)=CC1COC(=O)NCc1ccccc1 (stereo not drawn) [Compound FF]	3.12	>12.5	1.56	6.25	3.12	12.5	>12.5	>12.5	12.5	12.5		0.2	0.2	0.2	0.049	0.2	0.098	>12.5
CCC1OC(=O)CC(O)C(C)C(OC2OC(C)C(O)C(N(C)C)C2O)C(CC=O)CC(C)C(=NOCCCCc2cnc3ccccc3c2)C=CC(C)=CC1CO (stereo not drawn) [Compound J]	0.20	>12.5	0.025	0.20	0.20	>12.5	>12.5	>12.5	6.25	6.25	~4 fold	0.025	0.049	0.025	0.025	0.025	0.025	>12.5
CCC1OC(=O)CC(O)C(C)C(OC2OC(C)C(O)C(N(C)C)C2O)C(CCN2CC(C)CC(C)C2)CC(C)C(=NOCCOc2ccccc2)C=CC(C)=CC1CO (stereo not drawn) [Compound V]	6.25	>12.5	0.78	6.25	6.25	>12.5	>12.5	>12.5				0.20	0.39	0.39	0.78	>12.5	0.39	>12.5
CCC1OC(=O)CC(O)C(C)C(OC2OC(C)C(O)C(N(C)C)C2O)C(CCN2CC(C)CC(C)C2)CC(C)C(=NOCc2ccc(F)cc2)C=CC(C)=CC1CO (stereo not drawn) [Compound W]	3.12	>12.5	0.78	3.12	3.12	>12.5	>12.5	>12.5				0.39	0.39	0.39	0.39	>12.5	0.39	>12.5
CCC1OC(=O)CC(O)C(C)C(OC2OC(C)C(O)C(N(C)C)C2O)C(CCN2CC(C)CC(C)C2)CC(C)C(=NOCC(=O)N2CCN(c3ccccc3)CC2)C=CC(C)=CC1CO (stereo not drawn) [Compound X]	0.78	>12.5	0.39	3.12	1.56	>12.5	>12.5	>12.5				0.049	0.049	0.098	1.56	>12.5	0.78	>12.5
CC[C@H]1OC(=O)C[C@@H](O)[C@H](C)[C@@H](O[C@@H]2O[C@H](C)[C@@H](O)[C@H](N(C)C)[C@H]2O)[C@@H](CCN2C[C@H](C)C[C@H](C)C2)C[C@@H](C)C(=O)/C=C/C(C)=C/[C@@H]1CO[C@@H]1O[C@H](C)[C@@H](O)[C@@H](OC)[C@H]1OC [Tilm, tilmicosin, reference compound]	0.098	>12.5	0.098	0.39	0.20	>12.5	>12.5	>12.5				0.39	1.56	0.78	0.78	6.25	1.56	>12.5
CC[C@H]1OC(=O)C[C@@H](O)[C@H](C)[C@@H](O[C@@H]2O[C@H](C)[C@@H](O[C@H]3C[C@@](C)(O)[C@@H](O)[C@H](C)O3)[C@H](N(C)C)[C@H]2O)[C@@H](CC=O)C[C@@H](C)C(=O)/C=C/C(C)=C/[C@@H]1CO[C@@H]1O[C@H](C)[C@@H](O)[C@@H](OC)[C@H]1OC [Tyl, tylosin, reference compound]	0.39	>12.5	0.20	1.56	1.56	>12.5	>12.5	>12.5				0.098	0.098	0.20	0.20	>12.5	0.20	>12.5
